Assay [1] addresses T1, 5-HT6 receptor (Homo sapiens (Human), UniProt P50406). The assay can be described thus: Functional assay: inhibition of serotonin-induced intracellular cAMP in HEK 293 cells expressing 5-HT6 receptor (LANCE cAMP). It is filed as cell-based. Particulars: for inhibition at 10 µM: HEK293, read-out: % inhibition of 5-HT6 receptors, 10 μM solutions of compounds; for IC50: HEK 293 cells expressing 5-HT6 receptor, read-out: IC50 inhibition of serotonin 5-HT6 receptors in the setting of functional assay (serotonin-stimulated intracellular cAMP production). As to the method: Determination of antagonistic activity of compounds of general formula 1 towards 5-HT6 receptors. Compounds of general formula 1 were tested for their ability to prevent 5-HT6 receptor activation by serotonin. HEK 293 cells (cells of human embryo's kidney) with artificially expressed 5-HT6 receptor, activation of which by serotonin leads to increasing the concentration of intracellular cAMP were used. The content of intracellular cAMP was determined using reagent kit LANCE cAMP (PerkinElmer) according to the method described by the manufacturer of the kit [http://las.perkinelmer.com/content/Manuals/MAN_LANCEcAMP384KitUser.pdf].
Effectiveness of compounds was estimated by their ability to reduce the content of intracellular cAMP induced by serotonin.
On the technique in general: TR-FRET usually uses a lanthanide donor and a delayed reading to cut background.

Assay [2] has as its target T1, 5-HT6 receptor. The assay can be described thus: Competitive radioligand binding ([3H] Lysergic acid diethylamide) to membranes of HeLa cells expressing recombinant human 5-HT6 receptors. As to the method: Activity determination of serotonin 5-HT6 receptor antagonists of the general formula 1 in the setting of competitive binding to serotonin 5-HT6 receptors.
Screening of the disclosed compounds for their potential ability to interact with serotonin 5-HT6 receptors was carried out by method of radioligand binding. For this purpose membrane species were prepared from expressing recombinant human 5-HT6 receptors HeLa cells by means of their homogenization in glass homogenizer with subsequent separation of plasmatic membranes from cell nucli, mitochondria's and cell wreckages by differential centrifugation. Determination of tested compounds binding with 5-HT6 receptors was carried out according to the method described in [Monsma F J Jr, Shen Y, Ward R P, Hamblin M W and Sibley D R, Cloning and expression of a novel serotonin receptor with high affinity for tricyclic psychotropic drugs. Mol Pharmacol. 43:320-327, 1993]. […] After incubation the samples were filtered in vacuo on glass-microfiber filters G/F (Millipor, USA), filters were washed three times with cold solution of medium and radioactivity was measured by scintillation counter MicroBeta 340 (PerkinElmer, USA). […] Binding of tested compounds to the receptor was determined by their ability to displace the radioligand and expressed in percent of displacement. The percent of displacement was calculated according to the following equation:
[formula] wherein: TA—was overall radioactivity in the presence of radioligand only, CA—was radioactivity in the presence of radioligand and tested compound and NA—was radioactivity in the presence of radioligand and Serotonin (5 μM).

In assay [3] the test system is food consumption (appetite) in rats. The assay can be described thus: Appetite control test in food-deprived rats. It counts as in vivo, rat. Particulars: Vistar rats, 16 h food deprivation, 10 mg/kg intraperitoneally 60 min before test (FIG. 2 legend: 1 mg/kg). As to the method:
Appetite control test. Male rats of Vistar line weighing 230-360 g were housed in standard home cages with water and food available with the exception of short periods of food deprivation (16 hs) just before the Appetite test. The Appetite test was carried out in individual cages with overhead cover made of wire in the niches of which a portion of food granules was inserted. Mass of the granules was examined every 30 minutes for 3 h. On the basis of these measurements food consumption was estimated and stated in grams of food per kilogram of body mass. Placebo and the compound 1.1(1) (dose 10 mg/kg) were injected intraperitoneally 60 minutes before the test. Each experimental group of animals consisted of 10 rats. Compound was dissolved in sterilized water. The injection volume was 10 ml/kg. Intact animals which were not undergone food deprivation, and animals after food deprivation, but injected with sterilized water, were used as control. […]

For assay [4], the system named is prepulse inhibition of startle in mice. The assay can be described thus: Prepulse inhibition of the startle response in mice (Apomorphine-induced disturbance). The conditions noted are these: SHK mice, 1 mg/kg, 60 min before test. It counts as in vivo, mouse. As to the method: Antipsychotic activity of compounds of the general formula 1 in “Prepulse inhibition of the startle response in mice” test. Mice of SHK line weighing about 24-30 g were used in the test. Experiments were carried out during light period of animal's diurnal. Apomorphine hydrochloride and Haloperidol were received from Sigma Chemicals Company, (USA). Apomorphine hydrochloride was dissolved in 0.1% solution of ascorbic acid prepared with sterilized water; it was administered subcutaneously 15 minutes before the test. Haloperidol was dissolved in sterilized water using emulsifier Twin 80, it was administered intraperitoneally 60 minutes before the test. The compound 1.1(1) was dissolved in sterilized water, it was introduced subcutaneously 60 minutes before the test. Injection volume was 10 ml/kg. Solution of ascorbic acid prepared with sterilized water and Twin 80 were injected to control group of animals.
The test instrument consisted of a chamber made of transparent plexiglass (manufacturer—Columbia Instruments Company, USA) and placed on a platform the latter was lodged inside the sound insulating chamber. High frequency sound column transmitting acoustic stimulus was located 2 cm away from the platform. […] Inhibition of the startle in reply to prepulse-plus-pulse stimulus was calculated in percentage towards amplitude of startle in response to isolated pulse stimulus. […]

This is an account of results in patent US8829009B2, “Substituted 2-amino-3-(sulfonyl)pyrazolo[1,5-a]pyrimidines - serotonin 5-HT6 receptor antagonists, method for use thereof” (priority 2008, dated 2014).

Structures are written as SMILES.

T1 sequence (P50406 whole entry): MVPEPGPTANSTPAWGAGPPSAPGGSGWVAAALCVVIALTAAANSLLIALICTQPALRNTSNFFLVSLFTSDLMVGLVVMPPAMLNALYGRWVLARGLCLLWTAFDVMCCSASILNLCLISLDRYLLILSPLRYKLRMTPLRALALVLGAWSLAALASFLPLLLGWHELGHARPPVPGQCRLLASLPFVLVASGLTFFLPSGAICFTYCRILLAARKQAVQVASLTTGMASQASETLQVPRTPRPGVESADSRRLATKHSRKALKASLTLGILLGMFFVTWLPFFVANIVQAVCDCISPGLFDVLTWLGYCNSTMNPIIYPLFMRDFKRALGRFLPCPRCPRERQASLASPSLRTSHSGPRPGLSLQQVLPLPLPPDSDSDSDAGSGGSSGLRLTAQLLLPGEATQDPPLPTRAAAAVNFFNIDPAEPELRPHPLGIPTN

The inhibition is the relative decrease from the control value, in per cent. As for `Cc1ccc(S(=O)(=O)c2c(Nc3ccccc3)nn3c(C)c(C)c(C)nc23)cc1` [1(1)], the inhibition at 10 µM in assay [1] turned out to be 77%.

Turning to `CNc1nn2c(-c3ccccc3)cc(C)nc2c1S(=O)(=O)c1ccccc1` [1(2)], the inhibition at 10 µM in assay [1] is 90%.

For `CNc1nn2c(C)cc(-c3ccccc3)nc2c1S(=O)(=O)c1ccccc1` [1(3)], in assay [1], the inhibition at 10 µM came out at 91%.

`CNc1nn2c(C)cc(C)nc2c1S(=O)(=O)c1ccncc1` [1(4)]: the inhibition at 10 µM in assay [1] turned out to be 97%.

Regarding `CNc1nn2c(C)cc(C)nc2c1S(=O)(=O)c1cccnc1` [1(5)], the inhibition at 10 µM in assay [1] was determined as 95%.

Regarding `CNc1nn2c(C)cc(C)nc2c1S(=O)(=O)c1cccs1` [1(6)], the inhibition at 10 µM in assay [1] was 98%.

On to `CCNc1nn2c(C)cc(C)nc2c1S(=O)(=O)c1ccccc1` [1(7)], for which the inhibition at 10 µM in assay [1] worked out at 104%.

Regarding `Cc1cc(C)n2nc(NCCN(C)C)c(S(=O)(=O)c3ccccc3)c2n1` [1(8)], in assay [1], the inhibition at 10 µM was 91%.

As for `Cc1cc(C)n2nc(N(C)CCN(C)C)c(S(=O)(=O)c3ccccc3)c2n1` [1(9)], the inhibition at 10 µM in assay [1] turned out to be 88%.

With `Cc1cc(C)n2nc(NCCCN(C)C)c(S(=O)(=O)c3ccccc3)c2n1` [1(10)], the inhibition at 10 µM in assay [1] came to 94%.

As to `Cc1cc(C)n2nc(N3CCN(C(=O)OC(C)(C)C)CC3)c(S(=O)(=O)c3ccccc3)c2n1` [1(11)], the inhibition at 10 µM in assay [1] was 63%.

Turning to `Cc1cc(C)n2nc(N3CCNCC3)c(S(=O)(=O)c3ccccc3)c2n1` [1(12)], in assay [1], the inhibition at 10 µM stood at 76%.

As for `Cc1cc(C)n2nc(N3CCN(C)CC3)c(S(=O)(=O)c3ccccc3)c2n1` [1(13)], in assay [1], the inhibition at 10 µM was determined as 80%.

For the compound `Cc1ccc(Nc2nn3c(C)cc(C)nc3c2S(=O)(=O)c2ccc(C)cc2)cc1` [1(14)], the inhibition at 10 µM in assay [1] came to 70%.

One may read the IC50 as the concentration that gives 50% inhibition. One may read the Ki as the equilibrium dissociation constant of an inhibitor or competing ligand from its target. In the case of `CNc1nn2c(C)cc(C)nc2c1S(=O)(=O)c1ccccc1` [1.1(1), 2-methylamino-5,7-dimethyl-3-(phenylsulfonyl)pyrazolo[1,5-a]pyrimidine], the inhibition at 10 µM in assay [1] was found to be 77%. Further, the IC50 in assay [1] was determined as 5 nM; in assay [2] (1.5 nM [3H] Lysergic acid diethylamide, 120 min at 37° C., read-out: IC50 in the setting of competitive binding), 0.511 nM. Moreover, the Ki in assay [2] (1.5 nM [3H] Lysergic acid diethylamide, 120 min at 37° C., read-out: Ki in the setting of competitive binding) is 0.237 nM. Besides, the “activity of serotonin 5-HT6 receptor antagonist” value in assay [2] (quantity not specified, differs from Table 4) was determined as 4.61 nM. In assay [3], the “effect on appetite (food consumption) after food deprivation” value was “capable to prevent appetite rising in rats”. For the same compound, the “effect on disturbance of prepulse inhibition of startle caused by Apomorphine” value in assay [4] is “prevented disturbance of prepulse inhibition of startle caused by Apomorphine”.

In the case of `Cc1cc(C)n2nc(N(C)C)c(S(=O)(=O)c3ccccc3)c2n1` [1.1(2), 2-dimethylamino-5,7-dimethyl-3-(phenylsulfonyl)pyrazolo[1,5-a]pyrimidine], in assay [1], the inhibition at 10 µM amounted to 86% and the IC50 worked out at 1180 nM.

Take `CNc1nn2c(C)cc(C)nc2c1S(=O)(=O)c1ccc(F)cc1` [1.1(3), 2-methylamino-5,7-dimethyl-3-(4-fluorophenylsulfonyl)pyrazolo[1,5-a]pyrimidine]: in assay [1], the inhibition at 10 µM stood at 99% and the IC50 is 6 nM.

For `Cc1cc(C)n2nc(N(C)C)c(S(=O)(=O)c3ccc(F)cc3)c2n1` [1.1(4), 2-dimethylamino-5,7-dimethyl-3-(4-fluorophenylsulfonyl)pyrazolo[1,5-a]pyrimidine], the inhibition at 10 µM in assay [1] worked out at 95%.

In the case of `CNc1nn2c(C)cc(C)nc2c1S(=O)(=O)c1cccc(F)c1` [1.1(5), 2-methylamino-5,7-dimethyl-3-(3-fluorophenylsulfonyl)pyrazolo[1,5-a]pyrimidine], in assay [1], the inhibition at 10 µM was 97% and the IC50 was found to be 5 nM.

For the compound `Cc1cc(C)n2nc(N(C)C)c(S(=O)(=O)c3cccc(F)c3)c2n1` [1.1(6), 2-dimethylamino-5,7-dimethyl-3-(3-fluorophenylsulfonyl)pyrazolo[1,5-a]pyrimidine], the inhibition at 10 µM in assay [1] stood at 97%.

Consider `CNc1nn2c(C)cc(C)nc2c1S(=O)(=O)c1cccc(Cl)c1` [1.1(7), 2-methylamino-5,7-dimethyl-3-(3-chlorophenylsulfonyl)pyrazolo[1,5-a]pyrimidine], for which, in assay [1], the inhibition at 10 µM amounted to 100% and the IC50 worked out at 2 nM.

As for `Cc1cc(C)n2nc(N(C)C)c(S(=O)(=O)c3cccc(Cl)c3)c2n1` [1.1(8), 2-dimethylamino-5,7-dimethyl-3-(3-chlorophenylsulfonyl)pyrazolo[1,5-a]pyrimidine], the inhibition at 10 µM in assay [1] was determined as 96%.

For `CNc1nn2c(C)cc(C)nc2c1S(=O)(=O)c1ccc(F)c(Cl)c1` [1.1(9)], in assay [1], the inhibition at 10 µM amounted to 97% and the IC50 amounted to 4 nM.

`O=C(CCCN1CCC(O)(c2ccc(Cl)cc2)CC1)c1ccc(F)cc1` [Haloperidol, reference compound]: in assay [4], the “effect on disturbance of prepulse inhibition of startle caused by Apomorphine” value was “prevented disturbance of prepulse inhibition of startle caused by Apomorphine”.
